Results on 13 compounds are retold here after patent publication US20250281424A1 (New York Blood Center, Inc, priority 2020, published 2025).

In this assay the target is T1, human PF4 (Homo sapiens, UniProt P02776).
T1 construct: PF4 is a 70 amino acid, lysine-rich 7.8 kDa platelet-specific protein; made in house; host or cells: Escherichia coli BL21DE3 pLysS (pT7-7) and/or Drosophila S2 cells
T1 sequence (P02776 32-101): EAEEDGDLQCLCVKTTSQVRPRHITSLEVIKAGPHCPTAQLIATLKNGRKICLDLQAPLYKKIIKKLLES
Put plainly: Inhibition of PF4 tetramer formation (BS3 cross-linking, SDS-PAGE). Particulars: for inhibition at 1 µM: 1 μM inhibitor; for inhibition at 1 µM / inhibition at 3 µM / inhibition at 5 µM / inhibition at 10 µM: read-out: % inhibition of PF4 tetramer formation at single concentration of inhibitor; for inhibition at 3 µM: 3 μM inhibitor (column A); for inhibition at 5 µM: 5 μM inhibitor; for inhibition at 10 µM: 10 μM inhibitor (column A); for IC50: read-out: IC50 of PF4 tetramer formation inhibition. Type of assay: biochemical. The protocol: Compounds of Examples 1-38, 65-301, 303, 305, 307, 309, 311, 313, 314, 316, and 318-404 were tested using SDS PAGE analysis of BS3 crosslinked PF4 for their ability to prevent PF4 tetramer formation. […] See, Suvarna et al., Throm. Res, 122:211-220 (2008), which is hereby incorporated by reference, at least for a detailed description of this technique.
cDNA encoding human PF4 was cloned into the plasmid μMT/BiPN5-His A (Invitrogen Corp., Carlsbad CA) for expression in the Drosophila Expression System (Invitrogen, Carlsbad, CA). Cloning was performed using Bg1 II and Age I cloning sites. A hexanucleotide encoding Bg1 II site was then eliminated by site-directed mutagenesis so that the expressed protein contained full-length wild type (wt) PF4 or PF4^K50E with an identical sequence as their counterparts expressed in E. coli. See, method described in Sachais et al (Sachais, B. S. et al. (2012). Blood 119(25): 5955-5961). PF4 expression was induced by adding copper sulfate (0.5 mM). The induced S2 cells were incubated in serumfree Insect-Xpress™ media (Lonza, Walkersville, MD) for 3-5 days; supernatants were collected, sodium azide (0.02% final concentration) and EDTA (2.5 mM final concentration) were added, and the media were filtered through an Express® PLUS 0.22 μm filter (Millipore Corp., Billerica, MA).
Wild-type (WT) human PF4 in the pT7-7 vector (Novagen, Madison, WI) was expressed in the Escherichia coli strain BL21DE30 pLysS (Stratagene, La Jolla, CA), and purified and characterized as described by Rauova et al. (Rauova, L. et al. (2006). Blood 107(6): 2346-2353) and Park et al., (Blood, 75:1290-1295 (1990)), which are hereby incorporated by reference. Briefly, recombinant protein was isolated from the supernatant of the bacterial lysate by affinity chromatography using a HiTrap high-performance (HP) affinity column. WT PF4 was purified from the media on a heparin HiTrap® column on an ÄTKAPrime™ system (GE Healthcare) at 4° C. in Tris (10 mM), EDTA (1 mM), and pH 8 buffer. Media was loaded in buffer containing NaCl (0.5 M) and PF4 was eluted at 1.8 M NaCl using a linear gradient. Fractions containing purified PF4 as detected by silver staining of 12% NuPAGE Bis-Tris gels (Invitrogen) were pooled, concentrated and buffer exchanged into 50 mM HEPES, 0.5 M NaCl, pH—7.2 using an Amicon® Ultra centrifugal filter (3K NMWL, Millipore Corp). Protein was quantified using a BCA assay.
Compounds of Examples 1-38, 65-196, and 209-228 were then tested for their ability to inhibit PF4 tetramer formation using a cross-linking assay as described in Rauova cited above. Specifically, hPF4 (10 μg/ml) in phosphate-buffered saline (PBS) was incubated at 37° C. for 15 min in the absence of the antagonistic compounds (control sample) and presence of compounds. Cross-linking and SDS-PAGE analysis were then performed as described in “Analysis of PF4 multimerization” of Rauova. The relative amounts of PF4 in each of the monomer, dimer, trimer and tetramer form were calculated by analyzing the samples on a 12% SDS-polyacrylamide gel under reducing conditions. Bands were quantified using the Kodak ID Image Analysis system (Kodak, Rochester, NY). The SigmaMarker™ reagent served as the molecular weight standard. Data was compiled and bar graphed as % PF4 for the tetramer, trimer, dimer, and monomer as a function of concentration for the test and control samples.
This experiment was performed in a manner similar to experiment 1, but PF4 (10 μg/ml) in PBS was independently incubated with compounds of Examples 1-38, 65-196, and 209-228 for 60 min at room temperature, followed by the addition of cross-linking reagent bis(sulfosuccinimidyl)suberate (0.2 mM) for 30 min at room temperature. The reaction was stopped by adding NuPAGE® lithium dodecyl sulfate (LDS) sample buffer, and denatured by heating to 70° C. for 10 min according to the manufacturer's instructions. […]

Take `CC(C)(C)OC(=O)N1CC[C@H]1C(=O)C1C(=O)c2ccc(Oc3ccc4c(c3)C(=O)C(C(=O)[C@@H]3CCN3C(=O)OC(C)(C)C)C4=O)cc2C1=O` (stereo partly drawn) [Example 273, tert-butyl (2S)-2-[5-({2-[(2S)-1-[(tert-butoxy)carbonyl]azetidine-2-carbonyl]-1,3-dioxo-2,3-dihydro-1H-inden-5-yl}oxy)-1,3-dioxo-2,3-dihydro-1H-indene-2-carbonyl]azetidine-1-carboxylate]: the inhibition at 1 µM came out at 20% and the inhibition at 3 µM came out at 20%.
On to `CC(C)C(=O)NCC(=O)C1C(=O)c2ccc(S(=O)(=O)c3ccc4c(c3)C(=O)C(C(=O)CNC(=O)C(C)C)C4=O)cc2C1=O` (centres unmarked) [Example 191, 2-methyl-N-{2-[5-({2-[2-(2-methylpropanamido)acetyl]-1,3-dioxo-2,3-dihydro-1H-inden-5-yl}sulfonyl)-1,3-dioxo-2,3-dihydro-1H-inden-2-yl]-2-oxoethyl}propanamide], for which the inhibition at 5 µM came to 74%, the inhibition at 10 µM is 79% and the half-maximal inhibitory concentration (IC50) is about 3 µM.
In the same order, the values of `CC(C)(C)OC(=O)N1CC2(CC(C(=O)C3C(=O)c4ccc(C(=O)c5ccc6c(c5)C(=O)C(C(=O)C5CC7(C5)CN(C(=O)OC(C)(C)C)C7)C6=O)cc4C3=O)C2)C1` (centres unmarked) [Example 131, tert-butyl 6-[5-(2-{2-[(tert-butoxy)carbonyl]-2-azaspiro[3.3]heptane-6-carbonyl}-1,3-dioxo-2,3-dihydro-1H-indene-5-carbonyl)-1,3-dioxo-2,3-dihydro-1H-indene-2-carbonyl]-2-azaspiro[3.3]heptane-2-carboxylate] are 83%, 88% and 4.1 µM.
On the same counts, the results for `CC(C)(C)OC(=O)N1CC2(CC(C(=O)C3C(=O)c4ccc(-c5ccc6c(c5)C(=O)C(C(=O)C5CC7(C5)CN(C(=O)OC(C)(C)C)C7)C6=O)cc4C3=O)C2)C1` (centres unmarked) [Example 211, tert-butyl 6-(2′-{2-[(tert-butoxy)carbonyl]-2-azaspiro[3.3]heptane-6-carbonyl}-1,1′,3,3′-tetraoxo-1H,1′H,2H,2′H,3H,3′H-[5,5′-biindene]-2-carbonyl)-2-azaspiro[3.3]heptane-2-carboxylate] are 76%, 95% and 3.3 µM.
For `O=C(CSc1ccncc1)C1C(=O)c2ccc(S(=O)(=O)c3ccc4c(c3)C(=O)C(C(=O)CSc3ccncc3)C4=O)cc2C1=O` (centres unmarked) [Example 290, 5-({1,3-dioxo-2-[2-(pyridin-4-ylsulfanyl)acetyl]-2,3-dihydro-1H-inden-5-yl}sulfonyl)-2-[2-(pyridin-4-ylsulfanyl)acetyl]-2,3-dihydro-1H-indene-1,3-dione], the inhibition at 1 µM was determined as 39% and the inhibition at 3 µM came out at 51%.
As to `CSCCC(=O)C1C(=O)c2ccc(Oc3ccc4c(c3)C(=O)C(C(=O)CCSC)C4=O)cc2C1=O` (centres unmarked) [Example 276, 2-[3-(methylsulfanyl)propanoyl]-5-({2-[3-(methylsulfanyl)propanoyl]-1,3-dioxo-2,3-dihydro-1H-inden-5-yl}oxy)-2,3-dihydro-1H-indene-1,3-dione], the inhibition at 1 µM worked out at 12%, the inhibition at 3 µM was found to be 7% and the 50% inhibitory concentration (IC50) is 3 µM.
On to `CC[C@H](C)[C@H](NC(=O)C1C(=O)c2ccc(C(=O)c3ccc4c(c3)C(=O)C(C(=O)N[C@H](C(=O)OC)[C@@H](C)CC)C4=O)cc2C1=O)C(=O)OC` (stereo partly drawn) [Example 332, methyl (2S,3S)-2-{[5-(2-{[(2S,3S)-1-methoxy-3-methyl-1-oxopentan-2-yl]carbamoyl}-1,3-dioxo-2,3-dihydro-1H-indene-5-carbonyl)-1,3-dioxo-2,3-dihydro-1H-inden-2-yl]formamido}-3-methylpentanoate], for which the inhibition at 1 µM was 5% and the inhibition at 3 µM came out at 13%.
In the case of `COCCOCCC(=O)C1C(=O)c2ccc(S(=O)(=O)c3ccc4c(c3)C(=O)C(C(=O)CCOCCOC)C4=O)cc2C1=O` (centres unmarked) [Example 178, 2-[3-(2-methoxyethoxy)propanoyl]-5-({2-[3-(2-methoxyethoxy)propanoyl]-1,3-dioxo-2,3-dihydro-1H-inden-5-yl}sulfonyl)-2,3-dihydro-1H-indene-1,3-dione], the inhibition at 5 µM was 22% and the inhibition at 10 µM stood at 75%.
In the case of `CC(C)(C)OC(=O)NCC(=O)C1C(=O)c2ccc(C#Cc3ccc4c(c3)C(=O)C(C(=O)CNC(=O)OC(C)(C)C)C4=O)cc2C1=O` (centres unmarked) [Example 319, tert-butyl N-[2-(5-{2-[2-(2-{[(tert-butoxy)carbonyl]amino}acetyl)-1,3-dioxo-2,3-dihydro-1H-inden-5-yl]ethynyl}-1,3-dioxo-2,3-dihydro-1H-inden-2-yl)-2-oxoethyl]carbamate], the inhibition at 1 µM was 13% and the inhibition at 3 µM turned out to be 22%.
On the same counts, the results for `CC(C)(C)OC(=O)NCCCC(=O)C1C(=O)c2ccc(C(=O)c3ccc4c(c3)C(=O)C(C(=O)CCCNC(=O)OC(C)(C)C)C4=O)cc2C1=O` (centres unmarked) [Example 386, tert-butyl N-(4-{5-[2-(4-{[(tert-butoxy)carbonyl]amino}butanoyl)-1,3-dioxo-2,3-dihydro-1H-indene-5-carbonyl]-1,3-dioxo-2,3-dihydro-1H-inden-2-yl}-4-oxobutyl)carbamate] are 13% and 34%.
On the same counts, the results for `CSCC[C@H](NC(=O)OC(C)(C)C)C(=O)C1C(=O)c2ccc(C(=O)c3ccc4c(c3)C(=O)C(C(=O)[C@H](CCSC)NC(=O)OC(C)(C)C)C4=O)cc2C1=O` (stereo partly drawn) [Example 271, tert-butyl N-[(2S)-1-(5-{2-[(2S)-2-{[(tert-butoxy)carbonyl]amino}-4-(methylsulfanyl)butanoyl]-1,3-dioxo-2,3-dihydro-1H-indene-5-carbonyl}-1,3-dioxo-2,3-dihydro-1H-inden-2-yl)-4-(methylsulfanyl)-1-oxobutan-2-yl]carbamate] are 21% and 38%.
For the compound `COCCCNC(=O)C1C(=O)c2ccc(C(=O)c3ccc4c(c3)C(=O)C(C(=O)NCCCOC)C4=O)cc2C1=O` (centres unmarked) [Example 88, N-(3-methoxypropyl)-5-{2-[(3-methoxypropyl)carbamoyl]-1,3-dioxo-2,3-dihydro-1H-indene-5-carbonyl}-1,3-dioxo-2,3-dihydro-1H-indene-2-carboxamide], the half-inhibitory concentration (IC50) stood at 21 µM.
For the compound `O=C(c1ccc2c(c1)C(=O)C(C(=O)NC1CCS(=O)(=O)C1)C2=O)c1ccc2c(c1)C(=O)C(C(=O)NC1CCS(=O)(=O)C1)C2=O` (centres unmarked) [Example 361, N-(1,1-dioxo-1λ^6-thiolan-3-yl)-5-{2-[(1,1-dioxo-1λ^6-thiolan-3-yl)carbamoyl]-1,3-dioxo-2,3-dihydro-1H-indene-5-carbonyl}-1,3-dioxo-2,3-dihydro-1H-indene-2-carboxamide], the inhibition at 1 µM turned out to be 9% and the inhibition at 3 µM is 34%.

The IC50 is the midpoint of a concentration-inhibition curve.
